pIC50: −log10 of the molar value. “Also recorded” adds a separate entry of the source.
What was measured:
[1] = target: electric eel acetylcholinesterase (EEAChE) (Electrophorus electricus, UniProt O42275); assay: Colorimetric; type: biochemical; settings: tested at 50 µM
[2] = target: T1, recombinant mouse acetylcholinesterase (rMAChE) (Mus musculus, UniProt P21836); assay: Colorimetric; type: biochemical; settings: tested at 50 µM
T1 sequence (P21836 with tags, fused parts or gaps limits assumed): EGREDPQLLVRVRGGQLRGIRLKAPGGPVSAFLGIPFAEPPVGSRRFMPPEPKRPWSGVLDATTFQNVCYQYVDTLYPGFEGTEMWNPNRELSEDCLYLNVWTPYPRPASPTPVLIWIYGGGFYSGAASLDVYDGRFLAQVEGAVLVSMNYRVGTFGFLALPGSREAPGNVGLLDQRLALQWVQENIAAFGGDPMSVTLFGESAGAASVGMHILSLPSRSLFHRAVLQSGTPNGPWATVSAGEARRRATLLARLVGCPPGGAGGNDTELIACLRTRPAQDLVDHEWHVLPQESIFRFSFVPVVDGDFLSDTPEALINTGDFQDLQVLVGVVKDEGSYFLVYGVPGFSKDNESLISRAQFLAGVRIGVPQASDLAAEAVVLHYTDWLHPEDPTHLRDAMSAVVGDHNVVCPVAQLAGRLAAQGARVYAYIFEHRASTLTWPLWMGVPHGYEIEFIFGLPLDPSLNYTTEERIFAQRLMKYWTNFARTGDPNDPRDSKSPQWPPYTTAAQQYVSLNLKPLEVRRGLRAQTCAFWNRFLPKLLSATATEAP

EEAChE [3] = target: T2, EEAChE (Electrophorus electricus, UniProt O42275); settings: read-out: IC50 against EEAChE; competitive inhibition; cited from earlier work
T2 sequence (O42275 24-633): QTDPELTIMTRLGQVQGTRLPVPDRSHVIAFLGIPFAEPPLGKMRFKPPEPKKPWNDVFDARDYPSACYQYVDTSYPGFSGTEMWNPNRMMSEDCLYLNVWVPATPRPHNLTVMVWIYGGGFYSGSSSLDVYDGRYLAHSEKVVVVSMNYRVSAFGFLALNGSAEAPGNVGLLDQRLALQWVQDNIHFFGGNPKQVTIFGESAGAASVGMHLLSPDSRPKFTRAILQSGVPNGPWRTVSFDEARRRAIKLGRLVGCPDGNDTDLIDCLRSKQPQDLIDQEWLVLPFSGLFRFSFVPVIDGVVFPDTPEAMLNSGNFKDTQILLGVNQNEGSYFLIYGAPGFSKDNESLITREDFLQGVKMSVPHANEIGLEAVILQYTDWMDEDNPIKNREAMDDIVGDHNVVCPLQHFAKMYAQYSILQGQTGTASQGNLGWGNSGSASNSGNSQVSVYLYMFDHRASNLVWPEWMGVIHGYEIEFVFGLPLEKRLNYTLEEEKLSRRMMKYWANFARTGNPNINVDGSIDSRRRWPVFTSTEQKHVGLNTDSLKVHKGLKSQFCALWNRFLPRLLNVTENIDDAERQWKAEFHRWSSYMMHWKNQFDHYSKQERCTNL

EEAChE [4] = target: T2, EEAChE; settings: Lineweaver–Burk plot

Chain of electric eel acetylcholinesterase (EEAChE) (O42275 24-633): as above

## C#CCNC(=O)c1cc2ccc(N(CC)CC)cc2oc1=O [Compound 4, 2H-1-Benzopyran-7-N-diethyl-2-oxo-3-propynylcarboxylamide]
[1]
  Inhibition of EEAChE (in words): not an inhibitor
[2]
  Inhibition of rMAChE (in words): inhibited
[2]; listed as diethylaminocoumarin
  Inhibition of rMAChE (in words): some inhibitory ability

## C#CCNC(=O)c1cc2ccc(OC)cc2oc1=O [Compound 5, 2H-1-Benzopyran-7-methoxy-2-oxo-3-N-propynylcarboxylamide]
[1]; listed as methoxycoumarin
  Inhibition of EEAChE (in words): not inhibitors; also recorded: inactive
[2]; listed as methoxycoumarin
  Inhibition of rMAChE (in words): not inhibitors; also recorded: inactive

## 9-[2(or 4)-[[[-[-N-Propynylsulfonamide]-4(or 2)-sulfophenyl]-2,3,6,7,12,13,16,17–octahydro-1H, 5H, 11H, 15H-xantheno[2,3,4-ij:5,6,7i′j′]-diquinolizium-18-inner salt [Compound 7]
[1]
  Inhibition of EEAChE (in words): reversibly inactivate
[1]; listed as Texas Red
  Inhibition of EEAChE (in words): inhibited
[2]
  Inhibition of rMAChE (in words): reversibly inactivate
[2]; listed as Texas Red
  Inhibition of rMAChE (in words): inhibited

## C#CCNS(=O)(=O)c1ccc2ccc3cccc4ccc1c2c34 [Compound 2, 1-N-(-2-Propynyl)-pyrenesulfonamide]
[1]
  Inhibition of EEAChE (in words): inactive
[2]
  Inhibition of rMAChE (in words): inactive

## C#CCNS(=O)(=O)c1cccc2c(N(C)C)cccc12 [Compound 1, 5-(Dimethylamino)-N-(-2-propynyl)-1-naphthalenesulfonamide]
[1]; listed as dansyl
  Inhibition of EEAChE (in words): not inhibitors; also recorded: inactive
[2]; listed as dansyl
  Inhibition of rMAChE (in words): not inhibitors; also recorded: inactive

## c1cc2ccc3cccc4ccc(c1)c2c34 [pyrene]
EEAChE [3]
  pIC50: 5.28

## Xanthylium, 9-[-2-sulfophenyl]-3,6-bis(diethylamino)-4-sulfonamide [Compound 6]
EEAChE [4]
  Type of inhibition: mixed-type competitive and noncompetitive inhibition
[1]
  Inhibition of EEAChE (in words): reversibly inactivate
[1]; listed as Lissamine
  Inhibition of EEAChE (in words): inhibited
[2]
  Inhibition of rMAChE (in words): reversibly inactivate
[2]; listed as Lissamine
  Inhibition of rMAChE (in words): inhibited

## C#CCNS(=O)(=O)c1ccc(N=Nc2ccc(N(C)C)cc2)cc1 [Compound 3, 4-(4-Dimethylamino-phenylazo)-N-prop-2-ynyl benzenosulfonamide]
[1]; listed as dabsyl
  Inhibition of EEAChE (in words): not inhibitors; also recorded: inactive
[2]; listed as dabsyl
  Inhibition of rMAChE (in words): not inhibitors; also recorded: inactive

— publication PMC3253716 (Journal of Enzyme Inhibition and Medicinal Chemistry, 2010)
